From PubChem BioAssay (NCI)
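Step 1: Grow cells in 96-well plates. Step 2: Expose to compound for 48 hours at 5 concentrations. Step 3: Interpolate endpoints linearly; if unreached, use highest concentration. At the GI50, growth is halved. TGI: concentration producing complete growth inhibition.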

Columns and labels:
Assay in all cases: DTP human tumour cell line panel, 48 h
ACHN renal = test system: ACHN renal
OVCAR-4 ovarian = test system: OVCAR-4 ovarian
NCI/ADR-RES ovarian = test system: NCI/ADR-RES ovarian
SK-OV-3 ovarian = test system: SK-OV-3 ovarian
UO-31 renal = test system: UO-31 renal
NCI-H460 lung = test system: NCI-H460 lung
SK-MEL-28 melanoma = test system: SK-MEL-28 melanoma
OVCAR-8 ovarian = test system: OVCAR-8 ovarian
LOX IMVI melanoma = test system: LOX IMVI melanoma
SW-620 colon = test system: SW-620 colon

Row | Compound | GI50 (ACHN renal) [µM] | TGI (ACHN renal) [µM] | GI50 (OVCAR-4 ovarian) [µM] | TGI (OVCAR-4 ovarian) [µM] | GI50 (NCI/ADR-RES ovarian) [µM] | TGI (NCI/ADR-RES ovarian) [µM] | GI50 (SK-OV-3 ovarian) [µM] | TGI (SK-OV-3 ovarian) [µM] | GI50 (UO-31 renal) [µM] | TGI (UO-31 renal) [µM] | GI50 (NCI-H460 lung) [µM] | TGI (NCI-H460 lung) [µM] | GI50 (SK-MEL-28 melanoma) [µM] | TGI (SK-MEL-28 melanoma) [µM] | GI50 (OVCAR-8 ovarian) [µM] | TGI (OVCAR-8 ovarian) [µM] | GI50 (LOX IMVI melanoma) [µM] | TGI (LOX IMVI melanoma) [µM] | GI50 (SW-620 colon) [µM] | TGI (SW-620 colon) [µM]
1 | COc1ccc(-n2sc(=O)n(Cc3ccc(COC(=O)C(C)c4ccc(CC(C)C)cc4)cc3)c2=O)cc1 (stereo not given) | 0.996 | 2.05 | 0.92 | 1.99 | 7.5 | 20 | 28 | 50 | 0.819 | 1.6 | 5.41 | 12.5 | 3.02 | 9.53 | 2.81 | 21.5 | 0.943 | 1.9 | 0.9 | 1.82
2 | CON | > 100 | > 100 | > 100 | > 100 | > 100 | > 100 | > 100 | > 100 | > 100 | > 100 | > 100 | > 100 | > 100 | > 100 | > 100 | > 100 | > 100 | > 100 | > 100 | > 100
3 | C=C=[CH][Sn]([c]1ccccc1)([c]1ccccc1)[c]1ccccc1 | 1.66 | 3.16 | 1.47 | 3.38 | 2.19 | 5.94 | 2.15 | 4.73 | 1.44 | 3.18 | 1.44 | 3.02 | 1.71 | 3.34 | 1.85 | 3.68 | 1.43 | 2.87 | 0.821 | 2.17
4 | CCOc1cc(/C=N\NC(=O)N/N=C/c2ccc(O)c(OCC)c2)ccc1O | 7.99 | > 100 | 54.3 | > 100 | 3.47 | > 100 | 1.25 | > 100 | 8.47 | > 100 | 2.88 | > 67.7 | 10.3 | > 100 | 4.26 | > 100 | 2.45 | > 100 | 0.959 | > 100
5 | CC(C)N(C[C@H]1O[C@@H](n2cnc3c(N)ncnc32)[C@H](O)[C@@H]1O)C1CC(CCc2nc3ccc(C(C)(C)C)cc3[nH]2)C1 (stereo not given in full) | > 100 | > 100 | 74.1 | > 100 | > 100 | > 100 | > 100 | > 100 | > 100 | > 100 | > 100 | > 100 | > 39.3 | > 54.1 | > 100 | > 100 | > 71.5 | > 100 | > 100 | > 100
6 | ClC1=C(Cl)C(Cl)=C(Cl)C1=Cc1ccc(Cl)cc1 | 0.327 | 1.07 | 0.818 | 2.34 | 0.366 | 2.15 | 1.64 | 3.55 | 0.539 | 2.52 | 0.726 | 2.18 | 1.4 | 2.8 | 0.36 | 2.27 | 0.233 | 0.71 | 0.241 | 0.68
7 | C=C1CO[C@@H]2C[C@@H]1CC/C(C)=C/CC/C(C)=C/CC[C@@]2(C)O | 18.8 | 34 | 21.7 | 43.4 | 18.5 | 36 | 24 | 56.6 | 17.1 | 36.5 | 24.1 | > 68.3 | 16.8 | 38.3 | 20.9 | 44.8 | 2.25 | 21.4 | 22.2 | 45.9
8 | c1cnc2c(c1)Nc1cnncc1S2 |  | > 100 |  | > 100 |  | > 100 |  | > 100 |  | > 100 |  | > 100 |  | > 100 |  | > 100 |  | > 100 |  | > 100
9 | O=P1(O)c2ccccc2CS(=O)(=O)Cc2ccccc21 |  | > 100 |  | > 100 |  | > 100 |  | > 100 |  | > 100 |  | > 100 |  | > 100 |  | > 100 |  | > 100 |  | > 100
10 | CN(NC(=O)CC(=O)NN(C)C(=S)c1ccc(Cl)cc1)C(=S)c1ccc(Cl)cc1 | 18.1 | 85.8 | 19.6 | > 100 | 13.6 | 63.7 | 34.7 | 83.8 | 10.4 | > 100 | 4.38 | 63.7 | 15 | 54.5 | 23.7 | > 100 | 20.2 | > 100 | 29.3 | > 100
11 | C/C(=N\Nc1cccc(Cl)n1)c1ccccn1 | 0.556 | 18.4 | 0.439 | > 54.7 | 0.441 | 12.8 | 1.08 | > 43.2 | 0.466 | 4.33 | 0.482 | 8.33 | 1.65 | > 100 | 0.51 | > 100 | 0.492 | > 25 | 0.614 | > 100
